What was measured:
Type in all cases: cell-based
mouse MOR (mMOR) = mouse MOR (mMOR) (Mus musculus (Mouse), UniProt P42866); experiment: G-protein BRET functional opioid assay, MOR; settings: for Emax: normalized to DAMGO, read-out: % of control agonist maximal response (MOR)
Experimental: (§1) HEK-293T cells were obtained from the American Type Culture Collection (Rockville, MD) and were cultured in a 5% CO2 atmosphere at 37° C. in Dulbecco's Modified Eagle Medium (high glucose #11965; Life Technologies Corp.; Grand Island, NY) supplemented with 10% FBS (Premium Select, Atlanta Biologicals; Atlanta, GA), 100 U/mL penicillin, and 100 μg/mL streptomycin (#15140, Life Technologies). DNA Constructs: The mouse MOR (mMOR), the mouse DOR (mDOR) and the rat KOR (rKOR) were provided by Dr Lakshmi Devi at Mount Sinai School of Medicine. The G proteins used included untagged GαoB with Renilla luciferase 8 (RLuc8) inserted at position 91 (GαoB-RLuc8); Gβ1 (β1); Gγ2 which was fused to the full-length mVenus at its N-terminus via the amino acid linker GSAGT (mVenus-γ2). All constructs were sequence confirmed prior to use in experiments.
(§2) Transfection: The following cDNA amounts were transfected into HEK-293T cells (5×10^6 cells/plate) in 10-cm dishes using polyethylenimine (PEI) in a 1:1 ratio (diluted in Opti-MEM, Life Technologies): 2.5 μg MOR/DOR/KOR, 0.125 μg GαoBRLuc8, 6.25 μg (1, 6.25 μg mVenus-γ2. Cells were maintained in the HEK-293T media described above. After 24 hours the media was changed, and the experiment was performed 24 hours later (48 hours after transfection). BRET: Transfected cells were dissociated and re-suspended in phosphate-buffered saline (PBS). Approximately 200,000 cells/well were added to a black-framed, white-well, 96-well plate (#60050; Perkin Elmer; Waltham, MA). The microplate was centrifuged and the cells were resuspended in PBS. After 5 minutes, 5 μM of the luciferase substrate coelenterazine H was added to each well. After 5 minutes, ligands were added and the BRET signal was measured 5 minutes later on a PHERAstar FS plate reader. The BRET signal was quantified by calculating the ratio of the light emitted by the energy acceptor, mVenus (510-540 nm), over the light emitted by the energy donor, RLuc8 (485 nm). This drug-induced BRET signal was normalized using the Emax of a known agonist (DAMGO, DPDPE or U-50,488) as the maximal response at MOR/DOR/KOR. Data were analyzed using the dose-response-stimulation nonlinear curve fitting model (log[agonist] vs. response (three parameters)).

mouse DOR (mDOR) = mouse DOR (mDOR) (Mus musculus (Mouse), UniProt P32300); experiment: G-protein BRET functional opioid assay, DOR; settings: for Emax: normalized to DPDPE, read-out: % of control agonist maximal response (DOR)
Experimental: as §1, §2

KOR = KOR (Rattus norvegicus (Rat), UniProt P34975); experiment: KOR agonist (cAMP) assay, CHO cells (commercial); settings: for Emax / Emax at 10 µM: read-out: % of control agonist maximal response (KOR)
From the text: (§3) Potency (IC50 and EC50) and efficacy values for hERG, rKOR-CHO, hMOR-CHO, h5-HT2A-HEK, h5-HT2B-CHO, h5-HT2C HEK were obtained by screening the selected compounds via commercially available assay services.

rat KOR (rKOR) = rat KOR (rKOR) (Rattus norvegicus (Rat), UniProt P34975); experiment: G-protein BRET functional opioid assay, KOR; settings: for Emax: normalized to U-50,488, read-out: % of control agonist maximal response (KOR)
Experimental: as §1, §2

rVMAT2 = rVMAT2 (Rattus norvegicus (Rat), UniProt Q01827); experiment: rVMAT2 fluorometric screening assay (FFN206 uptake, rVMAT2-HEK cells); settings: average ± SEM, n ≥ 4; read-out: IC50 VMAT2 [μM ± SEM]
Experimental: (§4) Inhibition assays of transporters (hSERT and rVMAT2) were performed according to the following protocol.
(§5) Stably transfected hSERT-HEK and rVMAT2-HEK cellular cultures were maintained in Dulbecco's Minimal Essential Medium (DMEM) with GlutaMAX (Gibco) with the following additions: 10% (v/v) Fetal Bovine Serum (FBS, Atlanta Biologicals), 100 U/mL Penicillin (Gibco), and 10 μg/mL Streptomycin (Gibco). With regards to the former cell lineage, an additional ingredient, 500 μg/mL Geneticin (G418) (Gibco) was included to preserve the respective transgene.
(§6) For both hSERT and rVMAT2 screening experiments, respective singly transfected cells were seeded at a density of 0.09×10^6 cells/well in poly-D-Lysine (Alamanda Polymers, Inc.) coated white solid-bottom 96-well plates (Costar). Growth was permitted for approximately 44 hours in said aqueous media and at an incubation environment of 37° C. and 5% Carbon Dioxide. At the beginning of the experiment, the cellular growth solution was aspirated, and individual cells were rinsed with 150 μL of 1×Dulbecco's Phosphate Buffered Saline (PBS; HyClone). 63 μL of Experimental Media (consisting of the following contents: DMEM without phenol red but with 4.5 g/L of D-Glucose (Gibco), 1% (v/v) FBS (Atlanta Biologicals), 100 U/mL Penicillin (Gibco), and 10 μg/mL Streptomycin (Gibco)) with 2×tiered concentrations of inhibitor (or DMSO, the vehicle of these experiments) were added to the respective wells. Control inhibitors used in these studies include Imipramine for hSERT experiments, and Reserpine for rVMAT2 experiments (Eiden, L. E. and Weihe, E. 2011; Sette, M. et al. 1983). At the conclusion of the pre-incubation period (60 minutes for hSERT experiments and 30 minutes for rVMAT2 experiments), 63 μL of Experimental Media containing 2×various concentrations of tested inhibitor (or vehicle) along with a specified amount of fluorescent substrate, APP^+ (Karpowicz, R. J. et al 2013) (final concentration: 1.1 μM for hSERT experiments) or FFN206 (Hu, G. et al. 2013) (final concentration: 0.75 μM for rVMAT2 experiments) were added to the present solution contained within the wells. […] A final solution of 120 μL of PBS is finally added to all corresponding wells for cell maintenance before undergoing fluorescence uptake reading by a BioTek H1MF plate reader. […]
(§7) Numerical analysis of the collected experimental data preceded as accordingly. Respective inhibitor values were first subtracted from vehicular values to quantify the respective fluorescence uptake. This metric was then analyzed using the dose-response-inhibitor nonlinear curve fitting model ([inhibitor] vs response (three parameters)) as supplied by GraphPad Prism 8 software. […]

hSERT = hSERT (Homo sapiens (Human), UniProt P31645); experiment: hSERT fluorometric screening assay (APP+ uptake, hSERT-HEK cells); settings: average ± SEM, n ≥ 4; read-out: IC50 SERT [μM ± SEM]
Experimental: as §4, §5, §6, §7

5-HT2C = 5-HT2C (Homo sapiens (Human), UniProt P28335); experiment: 5-HT2C agonist (IP1) assay, HEK-293 cells (commercial); settings: Table 2; for Emax at 10 µM: HEK293, read-out: % of control agonist maximal response (5-HT2C); for EC50: IP1 agonist assay
From the text: as §3

5-HT2B = 5-HT2B (Homo sapiens (Human), UniProt P41595); experiment: 5-HT2B agonist (IP1) assay, CHO cells (commercial); settings: Table 2; for Emax at 10 µM: CHO, read-out: % of control agonist maximal response (5-HT2B); for EC50: IP1 agonist assay
From the text: as §3

5-HT2A = 5-HT2A (Homo sapiens (Human), UniProt P28223); experiment: 5-HT2A agonist (IP1) assay, HEK-293 cells (commercial); settings: Table 2; for Emax at 10 µM: HEK293, read-out: % of control agonist maximal response (5-HT2A); for EC50: IP1 agonist assay
From the text: as §3

[1] = Table 2, cAMP agonist assay, rat KOR, CHO

Chain of mouse MOR (mMOR) (P42866 whole entry, looked up): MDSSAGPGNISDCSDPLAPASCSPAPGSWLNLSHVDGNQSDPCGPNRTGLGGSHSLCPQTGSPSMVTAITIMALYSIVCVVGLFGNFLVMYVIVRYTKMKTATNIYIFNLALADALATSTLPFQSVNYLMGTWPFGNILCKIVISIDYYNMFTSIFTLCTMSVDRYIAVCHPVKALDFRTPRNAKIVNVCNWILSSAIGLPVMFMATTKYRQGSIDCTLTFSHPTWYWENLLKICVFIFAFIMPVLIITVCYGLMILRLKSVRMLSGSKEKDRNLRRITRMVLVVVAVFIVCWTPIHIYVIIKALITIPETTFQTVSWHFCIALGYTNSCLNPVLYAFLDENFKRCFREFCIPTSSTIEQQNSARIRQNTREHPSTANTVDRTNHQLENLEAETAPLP
Chain of rVMAT2 (Q01827 whole entry): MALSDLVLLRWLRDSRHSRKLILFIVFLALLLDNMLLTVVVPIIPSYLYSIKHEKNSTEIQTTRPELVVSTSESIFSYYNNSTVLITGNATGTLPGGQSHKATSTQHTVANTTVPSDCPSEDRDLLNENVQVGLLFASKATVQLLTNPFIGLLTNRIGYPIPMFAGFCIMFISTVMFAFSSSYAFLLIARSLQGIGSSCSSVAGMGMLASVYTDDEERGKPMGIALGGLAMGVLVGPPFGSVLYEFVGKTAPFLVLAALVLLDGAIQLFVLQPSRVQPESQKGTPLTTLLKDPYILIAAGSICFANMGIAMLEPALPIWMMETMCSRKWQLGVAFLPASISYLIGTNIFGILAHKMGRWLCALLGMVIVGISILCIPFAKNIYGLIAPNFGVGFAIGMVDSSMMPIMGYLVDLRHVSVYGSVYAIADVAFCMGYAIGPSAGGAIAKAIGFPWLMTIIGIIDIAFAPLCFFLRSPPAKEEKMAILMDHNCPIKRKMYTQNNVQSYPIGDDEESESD
Chain of 5-HT2C (P28335 whole entry, looked up): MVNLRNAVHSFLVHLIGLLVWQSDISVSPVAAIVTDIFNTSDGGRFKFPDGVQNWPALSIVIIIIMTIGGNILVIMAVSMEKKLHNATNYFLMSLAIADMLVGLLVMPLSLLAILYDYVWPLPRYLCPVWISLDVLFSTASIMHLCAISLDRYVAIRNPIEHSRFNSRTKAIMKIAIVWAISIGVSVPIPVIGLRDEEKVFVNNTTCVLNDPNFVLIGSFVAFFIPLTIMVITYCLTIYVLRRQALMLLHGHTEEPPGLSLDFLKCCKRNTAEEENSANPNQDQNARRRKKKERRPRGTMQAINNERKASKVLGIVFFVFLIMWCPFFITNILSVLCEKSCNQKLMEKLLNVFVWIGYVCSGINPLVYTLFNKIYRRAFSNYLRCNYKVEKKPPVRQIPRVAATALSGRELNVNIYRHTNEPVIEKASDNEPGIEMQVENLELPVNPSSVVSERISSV
Chain of 5-HT2B (P41595 whole entry): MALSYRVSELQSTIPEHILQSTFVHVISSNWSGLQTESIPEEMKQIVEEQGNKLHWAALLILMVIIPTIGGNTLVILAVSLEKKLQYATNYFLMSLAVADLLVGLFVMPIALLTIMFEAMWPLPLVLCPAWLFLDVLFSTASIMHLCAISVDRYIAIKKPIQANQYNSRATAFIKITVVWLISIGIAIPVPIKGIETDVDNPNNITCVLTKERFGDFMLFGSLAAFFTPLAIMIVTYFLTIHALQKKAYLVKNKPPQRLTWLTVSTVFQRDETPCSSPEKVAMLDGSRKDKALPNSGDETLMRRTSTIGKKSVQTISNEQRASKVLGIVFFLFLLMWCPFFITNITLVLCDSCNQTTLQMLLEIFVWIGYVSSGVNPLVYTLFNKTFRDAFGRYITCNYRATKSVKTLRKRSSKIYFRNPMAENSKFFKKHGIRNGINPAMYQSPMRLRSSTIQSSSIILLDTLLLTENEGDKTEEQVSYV

Compound | IC50 (rVMAT2) [µM] | IC50 (hSERT) [µM] | Emax at 10 µM (5-HT2C) [%] | EC50 (5-HT2C) [µM] | Emax at 10 µM (5-HT2B) [%] | EC50 (5-HT2B) [µM] | Emax at 10 µM (KOR; CHO, Table 2) [%] | EC50 (KOR; [1]) [µM] | Emax at 10 µM (5-HT2A) [%] | EC50 (5-HT2A) [µM] | also measured
CC1Cc2oc3ccc(O)cc3c2CCN1 (stereo not shown) [drawing 173] |  |  |  |  |  |  |  |  |  |  | EC50 (mouse MOR (mMOR)): 0.2 µM; Emax (mouse MOR (mMOR)): 16%; EC50 (mouse DOR (mDOR)): 0.62 µM; Emax (mouse DOR (mDOR)): 45%; Emax (KOR; CHO, Table 5, CAMP Assay): 96%; EC50 (KOR; Table 5, CAMP Assay): 0.06 µM; EC50 (rat KOR (rKOR)): 0.13 µM; Emax (rat KOR (rKOR)): 36%
CN1CCCc2oc3ccccc3c2C1 [drawing 168] | 15 ± 4.6 | 7.1 ± 2.3 |  |  |  |  |  |  |  |  | 
c1ccc2c3c(oc2c1)CCNCC3 [drawing 165] | 1.4 ± 0.23 | 0.45 ± 0.06 |  |  |  |  |  |  |  |  | 
c1ccc2c3c(oc2c1)CCCNC3 [drawing 163] |  |  | 78 | ~1.3 | 22 | > 10 | 45 | ~4.4 | 26 | ~60 | 
CN1CCCc2oc3ccccc3c2C1 [drawing 164] |  |  | 44 | ~14 | 3 | > 10 | 47 | ~3 | 4 | > 10 | 
Oc1ccc2oc3c(c2c1)CCN1CCCC3C1 (stereo not shown) [drawing 175] |  |  |  |  |  |  |  |  |  |  | EC50 (mouse MOR (mMOR)): 0.11 µM; Emax (mouse MOR (mMOR)): 44%; EC50 (mouse DOR (mDOR)): 0.12 µM; Emax (mouse DOR (mDOR)): 55%; Emax (KOR; CHO, Table 5, CAMP Assay): 91%; EC50 (KOR; Table 5, CAMP Assay): 0.05 µM; EC50 (rat KOR (rKOR)): 0.14 µM; Emax (rat KOR (rKOR)): 30%
c1ccc2c3c(oc2c1)CCNCC3 [drawing 161] |  |  | 90 | < 0.1 | 20 | > 10 | 36 | ~1.2 | 77 | ~1 | 
CN1CCc2oc3ccccc3c2CC1 [drawing 166] | 4.9 ± 0.94 | 1.4 ± 0.3 |  |  |  |  |  |  |  |  | 

Reference: patent US20230382919A1, “OXA- IBOGAINE INSPIRED ANALOGUES FOR TREATMENT OF NEUROLOGICAL AND PSYCHIATRIC DISORDERS” (The Trustees of Columbia University in the City of New York, priority 2021, published 2023)
